Reference: the supplement of paper PMC8837787

These compounds were tested on Saccharomyces cerevisiae ABC16-Green Monster (assay: growth inhibition at single dose (up to 150 µM), below the 70% cut-off for dose-response; higher = more potent). Conditions: 18 h; 30 °C; YPD.
In short: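 Percent growth inhibition is the reported value. Drug-sensitive S. cerevisiae ABC16-Green Monster cultures in log phase (OD600 0.1–0.2), 200 µl per well in 96-well plates, received each library compound once at 150 µM in biological duplicates, with untreated cultures run alongside. Growth was followed by OD600 at 0 h and after 18 h at 30 °C. Dose-response was not done for compounds below 70% in both replicates.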
In the case of `NCC(=O)N1CCn2c(nc(-c3ccccc3)c2Nc2ccc3c(c2)OCO3)C1`, the “growth inhibition at single dose” value is reported as under 70%.
In the case of `O=C1c2ccccc2-c2nnc(-c3ccc(Br)cc3)cc21`, the “growth inhibition at single dose” value is reported as under 70%.
With `CC(C)(C)C(=O)N(CCCCCCN1C[C@H](O)[C@@H](O)[C@H](O)[C@H]1CO)C1CCCCCC1` the “growth inhibition at single dose” value was under 70%.
In the case of `N#CCNC(=O)c1ccc(-c2ccnc(Nc3ccc(N4CCOCC4)cc3)n2)cc1` [Momelotinib], the “growth inhibition at single dose” value is reported as under 70%.
For `CCN(CC)CCNc1ncnc2c1[nH]c1ccc(Br)cc12`, the “growth inhibition at single dose” value was under 70%.
`CCc1c(C)[nH]c2cc(-c3ccc(OC)cc3)nn2c1=O` was tested, and the “growth inhibition at single dose” value was under 70%.
For `CNc1nc(SCCS(=O)(=O)c2ccccc2)nc2ccccc12`, the “growth inhibition at single dose” value was under 70%.
With `CCCS(=O)(=O)c1cnc(C2COc3ccccc3O2)nc1N` (centres undefined) the “growth inhibition at single dose” value was under 70%.
For `CC(C)c1ccc2c(c1)/C(=N/NC(=O)c1ccccc1F)C(=O)N2`, the “growth inhibition at single dose” value was under 70%.
In the case of `COc1ccc(CCn2nc(C(=O)NC3CC3)c3c2CCN(C(=O)c2cc(C)n[nH]2)C3)cc1`, the “growth inhibition at single dose” value is reported as under 70%.
With `O=C(Nc1nnc(-c2ccc(Cl)s2)o1)c1ccc(Cl)s1` the “growth inhibition at single dose” value was under 70%.
`COc1ccc(CN2CCN(C(=O)c3ccc(-n4cccn4)cc3)CC2)cc1F` was tested, and the “growth inhibition at single dose” value was under 70%.
With `Cc1cc(C2=NOC(c3cc(Cl)c(F)c(Cl)c3)(C(F)(F)F)C2)ccc1C(=O)NCc1ccc2c(c1)C(C)(C)OB2O` (centres undefined) the “growth inhibition at single dose” value was under 70%.
`COC(=O)Cc1[nH]n(-c2nc3ccccc3s2)c(=O)c1C(C)=NCCO` was tested, and the “growth inhibition at single dose” value was under 70%.
With `CCc1ccc(C(=O)Nc2cccc(NC(=O)c3ccccc3C)c2)cc1` the “growth inhibition at single dose” value was under 70%.
`CCOC(=O)c1noc(N)c1-c1ccccc1` was tested, and the “growth inhibition at single dose” value was under 70%.
`Cc1nnc(NCc2cccc(Cl)c2)c2ccccc12` was tested, and the “growth inhibition at single dose” value was under 70%.
In the case of `CN(C)S(=O)(=O)c1cccc(C(=O)Nc2cnc3ccccc3c2)c1`, the “growth inhibition at single dose” value is reported as under 70%.
For `OC1CCN(c2nn3cc(-c4ccccc4)nc3s2)CC1`, the “growth inhibition at single dose” value was under 70%.
For `CCOc1ccc2cc(-c3nn(CC4CCN(C)CC4)c4ncnc(N)c34)ccc2c1`, the “growth inhibition at single dose” value was under 70%.
`Cc1cc(N(C)C)nc(Nc2ccc(NC(=O)Nc3ccccc3)cc2)n1` was tested, and the “growth inhibition at single dose” value was under 70%.
`CC1=Nc2ccc(Cl)cc2C(O)(c2ccc(C)cc2)N1CCN1CCCCC1` (centres undefined) was tested, and the “growth inhibition at single dose” value was under 70%.
With `COc1cccc(C(=O)Nc2ccc(-c3nc4ccccc4[nH]3)cc2)c1` the “growth inhibition at single dose” value was under 70%.
For `Cc1cc(C(=O)Oc2ccccc2C(N)=O)c(C)n1Cc1ccco1`, the “growth inhibition at single dose” value was under 70%.
In the case of `CCCCCCOC(=O)C1=C(C)NC(=O)NC1c1ccccc1F` (centres undefined), the “growth inhibition at single dose” value is reported as under 70%.
With `Cc1cc(NC(=O)c2ccc(S(=O)(=O)N(Cc3ccccc3)C(C)C)cc2)no1` the “growth inhibition at single dose” value was under 70%.
For `Cc1ccc(NS(=O)(=O)c2ccc(C(=O)Nc3ncccc3O)cc2)cc1C`, the “growth inhibition at single dose” value was under 70%.
For `O=C(NCc1ccco1)C1CCN(S(=O)(=O)c2ccc(Br)cc2)CC1`, the “growth inhibition at single dose” value was under 70%.
`CNC1C(OC2C(OC3C(O)C(O)C(NC(=N)N)C(O)C3NC(=N)N)OC(C)C2(O)C=O)OC(CO)C(O)C1O` (centres undefined) was tested, and the “growth inhibition at single dose” value was under 70%.
For `O=C(Nc1nc2c(s1)CCCC2)c1cc(F)c(F)c(F)c1F`, the “growth inhibition at single dose” value was under 70%.
With `CC(Oc1ccc(NC(=O)c2cccs2)cc1)C(=O)c1ccc(Cl)cc1` (centres undefined) the “growth inhibition at single dose” value was under 70%.
In the case of `O=C(NCc1cc(Cl)cc(Cl)c1)c1c(C(F)(F)F)nc2ccccn12`, the “growth inhibition at single dose” value is reported as under 70%.
With `O=c1c2ccccc2cnn1-c1nc2ccccc2s1` the “growth inhibition at single dose” value was under 70%.
With `O=C(Nc1ccc(CNc2ncnc3cc(Cl)ccc23)cc1)C1CC1` the “growth inhibition at single dose” value was under 70%.
With `FC(F)(F)c1ccc(Nc2nnnc3ccccc23)cc1` the “growth inhibition at single dose” value was under 70%.
For `CC(C)CCNCC(O)Cn1c2ccccc2c2ccccc21` (centres undefined), the “growth inhibition at single dose” value was under 70%.
`CCOC(=O)c1cnc2c(C)cc(C)cc2c1Nc1ccc(OC)c(OC)c1` was tested, and the “growth inhibition at single dose” value was under 70%.
`CC(C)n1ncc2cc(C(=O)Nc3nc4c(s3)CCCC4)cnc21` was tested, and the “growth inhibition at single dose” value was under 70%.
For `Clc1ccc(CN2CCN(C3=NCCN3)CC2)cc1Cl`, the “growth inhibition at single dose” value was under 70%.
In the case of `COc1cc(OC)c(N(C)C(=O)c2cc3c(s2)-c2ccccc2S(=O)(=O)C3)cc1Cl`, the “growth inhibition at single dose” value is reported as under 70%.
In the case of `O=C(Nc1ccc(Cl)cc1)N1CCN(c2ccc3nncn3n2)CC1`, the “growth inhibition at single dose” value is reported as under 70%.
In the case of `Cc1ccc(F)cc1NC(=O)c1cc(Cl)ccc1Nc1ccccc1`, the “growth inhibition at single dose” value is reported as under 70%.
`Oc1c(CN2CCN(c3ccccc3F)CC2)cc(Br)c2cccnc12` was tested, and the “growth inhibition at single dose” value was under 70%.
`CC1=C(C#N)C(/C=N/N(C)c2ncc(C(F)(F)F)cc2Cl)CC(=O)N1` (centres undefined) was tested, and the “growth inhibition at single dose” value was under 70%.
`O=C(Nc1cc(S(=O)(=O)N2CCCC2)ccc1O)c1sccc1-n1cccc1` was tested, and the “growth inhibition at single dose” value was under 70%.
With `c1ccc2c(NCCc3c[nH]c4ccccc34)c3ccccc3nc2c1` the “growth inhibition at single dose” value was under 70%.
For `COc1ccc(C(=O)C2CC2c2ccc(Cl)cc2)cc1` (centres undefined), the “growth inhibition at single dose” value was under 70%.
`CCOc1ccccc1NC(=O)CN1CCN(C(=O)c2ccco2)CC1` was tested, and the “growth inhibition at single dose” value was under 70%.
With `Nc1nc2ccc(-c3cncc(Oc4ccc(F)cc4)c3)cc2[nH]1` the “growth inhibition at single dose” value was under 70%.
In the case of `O=C(Nc1ncc(Cc2ccc(Br)cc2)s1)c1ccc2n[nH]nc2c1`, the “growth inhibition at single dose” value is reported as under 70%.
For `Cc1ccsc1C(=O)Nc1ccc(N2CCN(C)CC2)cn1`, the “growth inhibition at single dose” value was under 70%.
In the case of `COc1ccc(Cl)cc1NC(=O)CN(C)C(=O)c1cnn(-c2ccccc2)n1`, the “growth inhibition at single dose” value is reported as under 70%.
With `CC(Nc1ncnc2sccc12)c1ccc(-n2cncn2)cc1` (centres undefined) the “growth inhibition at single dose” value was under 70%.
With `CC1CS(=O)(=O)CCN1/N=C/c1ccc([N+](=O)[O-])o1` (centres undefined) the “growth inhibition at single dose” value was under 70%.
In the case of `COc1ccc2c(c1)CCCN2C(=O)c1occc1C`, the “growth inhibition at single dose” value is reported as under 70%.
In the case of `O=C(NNc1cc(N2CCCC2)nc(N2CCCC2)n1)c1ccccc1`, the “growth inhibition at single dose” value is reported as under 70%.
With `Nc1ncc(-c2cn[nH]c2)cc1-c1nc2cc(Cl)cnc2[nH]1` the “growth inhibition at single dose” value was under 70%.
With `CCN(CC)CCNc1ccnc2cc3ccccc3cc12` the “growth inhibition at single dose” value was under 70%.
With `CCOC(=O)c1c(C)[nH]c(C(=O)CSc2nnc(C3CC3)n2N)c1C` the “growth inhibition at single dose” value was under 70%.
`CC(C)(C)c1cc(NC(=O)COc2ccc3[nH]c4ccccc4c(=O)c3c2)n(-c2ccccc2)n1` was tested, and the “growth inhibition at single dose” value was under 70%.
For `CC(=O)N1CCN(c2ccc(Oc3ccc(Cl)cc3O)cc2)CC1`, the “growth inhibition at single dose” value was under 70%.
With `COc1cccc(NC(=O)Cn2c(C)c(C#N)c3ccccc32)c1` the “growth inhibition at single dose” value was under 70%.
For `CCOc1ccc(Nc2c3ccccc3nc3ccccc23)cc1`, the “growth inhibition at single dose” value was under 70%.
With `OC(c1cn2cc(-c3ccc(F)cc3)nc2s1)(C(F)(F)F)C(F)(F)F` the “growth inhibition at single dose” value was under 70%.
With `O=C(Nc1ncccc1O)c1ccc(N2CCOCC2)nc1` the “growth inhibition at single dose” value was under 70%.
`CC(C(=O)Nc1ccc2oc(-c3ccncc3)nc2c1)c1ccccc1` (centres undefined) was tested, and the “growth inhibition at single dose” value was under 70%.
`CCc1ccc(CNCC(O)c2ccccc2)cc1` (centres undefined) was tested, and the “growth inhibition at single dose” value was under 70%.
In the case of `COc1ccc(C=C2SC(Nc3ccc(F)cc3)=NC2=O)c(OC)c1`, the “growth inhibition at single dose” value is reported as under 70%.
In the case of `Cc1cnc(NC(=O)c2ccc(N(C)C3CCCCC3)cc2)s1`, the “growth inhibition at single dose” value is reported as under 70%.
For `N#Cc1ccnc(N2CCN(C(=O)c3cccc(-n4cccc4)c3)CC2)c1`, the “growth inhibition at single dose” value was under 70%.
For `FC(F)(F)c1cnc(Sc2nnc(-c3ccncc3)o2)c(Cl)c1`, the “growth inhibition at single dose” value was under 70%.
In the case of `O=C(Nc1ncccc1O)c1ccc(-n2ccnc2)cc1`, the “growth inhibition at single dose” value is reported as under 70%.
With `COC(=O)c1c(NC(=O)c2c(F)c(F)c(F)c(F)c2F)sc2c1CCCCC2` the “growth inhibition at single dose” value was under 70%.
In the case of `O=C(Nc1ncccc1O)c1ccc(S(=O)(=O)NCCc2cccs2)cc1`, the “growth inhibition at single dose” value is reported as under 70%.
`CCCCN(CCCC)c1c(C#N)cc(S(=O)(=O)Nc2ccccc2)cc1C#N` was tested, and the “growth inhibition at single dose” value was under 70%.
With `Cc1ccc(C(=O)NC(C)C)n1C` the “growth inhibition at single dose” value was under 70%.
In the case of `COc1ccccc1NC(=O)NCc1nc(-c2ccccc2)c[nH]1`, the “growth inhibition at single dose” value is reported as under 70%.
`Cc1cc(C(=O)COC(=O)c2[nH]nc3ccccc23)c(C)n1Cc1cccs1` was tested, and the “growth inhibition at single dose” value was under 70%.
In the case of `Cc1nn(Cc2ccccc2)c(Cl)c1/C=C/C(=O)OC(C)C(=O)N1CCCC1` (centres undefined), the “growth inhibition at single dose” value is reported as under 70%.
With `C=CCN(C(=O)c1[nH]c(C)c(C(C)=O)c1C)c1nc2c(s1)CCCC2` the “growth inhibition at single dose” value was under 70%.
`CO[C@@H]1CN(c2ccc(C#CC3(O)CN4CCC3CC4)c(Cc3ccccc3)n2)C[C@H]1O` (some centres undefined) was tested, and the “growth inhibition at single dose” value was under 70%.
`COc1ccc(/C=C2\N=C(SCC(=O)O)N(Cc3ccccc3)C2=O)cc1` was tested, and the “growth inhibition at single dose” value was under 70%.
`N#CCN(CCCCN1CCN(c2ccc(F)cc2)CC1)C(=O)OCc1ccccc1` was tested, and the “growth inhibition at single dose” value was under 70%.
With `COc1cc(C(=O)c2c(N)c(C#N)cn3c2nc2ccccc23)cc(OC)c1OC` the “growth inhibition at single dose” value was under 70%.
In the case of `Cc1[nH]c2ccc(F)cc2c(=O)c1I`, the “growth inhibition at single dose” value is reported as under 70%.
With `Nc1ncnc2c1ncn2[C@@H]1O[C@H](COS(=O)(=O)NC(=O)c2ccccc2O)[C@@H](O)[C@H]1O` the “growth inhibition at single dose” value was under 70%.
In the case of `Cc1cc(C)c(C#N)c(SCC(=O)N(C)Cc2cnn(-c3ccccc3)c2)n1`, the “growth inhibition at single dose” value is reported as under 70%.
In the case of `CC(C)n1nc(-c2cc3c(Cl)cccc3[nH]2)c2c(N)ncnc21`, the “growth inhibition at single dose” value is reported as under 70%.
With `CCN(CC)CCCCCCNc1cc(OC)cc2c(C)ccnc12` the “growth inhibition at single dose” value was under 70%.
With `COc1ccc(C(=O)Nc2nonc2-c2ccc(OC)c(OC)c2)cc1Cl` the “growth inhibition at single dose” value was under 70%.
`Cc1ccccc1-n1c(SCC(=O)NC2CCCCC2)nc(O)cc1=O` was tested, and the “growth inhibition at single dose” value was under 70%.
For `Cc1cc(Nc2ccc3ccccc3c2)n2ncnc2n1`, the “growth inhibition at single dose” value was under 70%.
For `Cc1cc(C)cc(COc2ccc3c(C)c(CCC(=O)O)c(=O)oc3c2C)c1`, the “growth inhibition at single dose” value was under 70%.
With `CCOc1cc(Cl)c(C(C)NC(=O)c2cccc(OC)c2)cc1OCC` (centres undefined) the “growth inhibition at single dose” value was under 70%.
